Assay results taken from patent US8435980B2 (AbbVie Inc., priority 2009, dated 2013).

target: T1, Cdc7 (BEV coexpressed huCDC7/DBF4) (Homo sapiens, UniProt O00311); assay: Cdc7 enzyme inhibition assay ([33P]ATP, biotinylated peptide substrate, FlashPlate); format: biochemical; details: Table 3; enzyme inhibition data (Ki)
T1 construct: made in house; host or cells: BEV (baculovirus expression vector) co-expression; insect cells are implied but no cell line is named
Method: Cdc7 (BEV coexpressed huCDC7/DBF4) is prepared internally. Cdc7 assays are conducted as follows with final concentrations as listed. […] Reactions are quenched after 1 hr by the addition of 90 μL stop buffer (50 mM EDTA, 2M NaCl). […] (Ki) for exemplary compounds.

T1 sequence (O00311 whole entry): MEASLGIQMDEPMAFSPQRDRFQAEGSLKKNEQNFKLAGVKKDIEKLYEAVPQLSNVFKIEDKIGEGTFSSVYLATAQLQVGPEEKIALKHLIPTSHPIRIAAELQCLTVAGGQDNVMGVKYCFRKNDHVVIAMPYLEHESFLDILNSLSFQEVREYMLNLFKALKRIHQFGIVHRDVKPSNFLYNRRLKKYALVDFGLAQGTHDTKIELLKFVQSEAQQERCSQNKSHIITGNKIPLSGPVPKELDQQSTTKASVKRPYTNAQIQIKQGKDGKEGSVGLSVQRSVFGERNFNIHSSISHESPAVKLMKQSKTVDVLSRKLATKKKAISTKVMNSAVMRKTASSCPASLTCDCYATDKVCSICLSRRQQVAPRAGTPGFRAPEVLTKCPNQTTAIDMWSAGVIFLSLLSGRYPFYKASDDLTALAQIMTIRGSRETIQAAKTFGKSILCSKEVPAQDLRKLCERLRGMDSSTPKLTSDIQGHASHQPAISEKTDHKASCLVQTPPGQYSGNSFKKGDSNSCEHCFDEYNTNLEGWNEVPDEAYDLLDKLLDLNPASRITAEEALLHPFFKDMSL
T1 sequence (Q9UBU7 whole entry partner): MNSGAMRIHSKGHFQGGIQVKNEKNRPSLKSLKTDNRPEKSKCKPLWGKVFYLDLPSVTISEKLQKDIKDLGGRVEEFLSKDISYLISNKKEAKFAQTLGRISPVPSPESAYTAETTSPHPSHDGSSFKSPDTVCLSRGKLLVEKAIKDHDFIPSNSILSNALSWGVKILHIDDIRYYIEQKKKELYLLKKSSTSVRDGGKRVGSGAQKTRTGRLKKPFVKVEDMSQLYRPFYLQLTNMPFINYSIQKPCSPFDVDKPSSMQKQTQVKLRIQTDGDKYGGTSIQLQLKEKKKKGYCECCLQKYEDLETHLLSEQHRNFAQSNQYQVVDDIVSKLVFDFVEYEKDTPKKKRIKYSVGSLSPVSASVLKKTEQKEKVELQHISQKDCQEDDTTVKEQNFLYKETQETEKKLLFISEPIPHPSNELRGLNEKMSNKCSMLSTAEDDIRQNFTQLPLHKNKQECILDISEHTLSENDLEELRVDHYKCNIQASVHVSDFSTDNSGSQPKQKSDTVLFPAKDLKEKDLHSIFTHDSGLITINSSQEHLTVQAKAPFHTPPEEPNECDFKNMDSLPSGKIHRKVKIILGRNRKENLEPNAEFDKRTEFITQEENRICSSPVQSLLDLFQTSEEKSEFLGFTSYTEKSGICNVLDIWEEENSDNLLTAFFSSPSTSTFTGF

Ki [nM] | SMILES
< 10 | O=C(N[C@H]1CC[C@H](Nc2nc(Cl)cc(-c3c[nH]c4ncccc34)n2)CC1)C1CC1 [Example 271, N-(trans-4-{[4-chloro-6-(1H-pyrrolo[2,3-b]pyridin-3-yl)pyrimidin-2-yl]amino}cyclohexyl)cyclopropanecarboxamide]
< 10 | O=C(NC1CCCC(Nc2nc(Cl)cc(-c3c[nH]c4ncccc34)n2)C1)C1CC1 (stereo not shown) [Example 272, N-(3-{[4-chloro-6-(1H-pyrrolo[2,3-b]pyridin-3-yl)pyrimidin-2-yl]amino}cyclohexyl)cyclopropanecarboxamide]
< 10 | Clc1cc(-c2c[nH]c3ncccc23)nc(NC2CCCC(NC3CCC3)C2)n1 (stereo not shown) [Example 274, N-[4-chloro-6-(1H-pyrrolo[2,3-b]pyridin-3-yl)pyrimidin-2-yl]-N′-cyclobutylcyclohexane-1,3-diamine]
< 10 | Clc1cc(-c2c[nH]c3ncccc23)nc(N[C@H]2CC[C@H](NC3CCC3)CC2)n1 [Example 275, trans-N-[4-chloro-6-(1H-pyrrolo[2,3-b]pyridin-3-yl)pyrimidin-2-yl]-N′-cyclobutylcyclohexane-1,4-diamine]
< 10 | COCCNc1nc(Cl)cc(-c2c[nH]c3ncccc23)n1 [Example 279, 4-chloro-N-(2-methoxyethyl)-6-(1H-pyrrolo[2,3-b]pyridin-3-yl)pyrimidin-2-amine]
< 10 | O=C(Nc1ccccc1)N[C@H]1CC[C@H](Nc2nc(Cl)cc(-c3c[nH]c4ncccc34)n2)CC1 [Example 281, 1-(trans-4-{[4-chloro-6-(1H-pyrrolo[2,3-b]pyridin-3-yl)pyrimidin-2-yl]amino}cyclohexyl)-3-phenylurea]
< 10 | O=S(=O)(N[C@H]1CC[C@H](Nc2nc(Cl)cc(-c3c[nH]c4ncccc34)n2)CC1)C1CC1 [Example 282, N-(trans-4-{[4-chloro-6-(1H-pyrrolo[2,3-b]pyridin-3-yl)pyrimidin-2-yl]amino}cyclohexyl)cyclopropanesulfonamide]
< 10 | Cc1noc(C)c1S(=O)(=O)NC1CCC(Nc2cc(-c3c[nH]c4ncccc34)cc(Cl)n2)CC1 (stereo not shown) [Example 283, N-(4-{[6-chloro-4-(1H-pyrrolo[2,3-b]pyridin-3-yl)pyridin-2-yl]amino}cyclohexyl)-3,5-dimethyl-1,2-oxazole-4-sulfonamide]
< 10 | COC[C@H](Cc1ccccc1)Nc1cc(-c2c[nH]c3ncccc23)cc(Cl)n1 [Example 284, 6-chloro-N-[(2S)-1-methoxy-3-phenylpropan-2-yl]-4-(1H-pyrrolo[2,3-b]pyridin-3-yl)pyridin-2-amine]
10 to 100 | Clc1cc(-c2c[nH]c3ncccc23)cc(NC2CCCC(NC3CCCC3)C2)n1 (stereo not shown) [Example 285, N-[6-chloro-4-(1H-pyrrolo[2,3-b]pyridin-3-yl)pyridin-2-yl]-N′-cyclopentylcyclohexane-1,3-diamine]
< 10 | CCOC(=O)CNC(=O)NC1CCC(Nc2cc(-c3c[nH]c4ncccc34)cc(Cl)n2)CC1 (stereo not shown) [Example 286, ethyl N-[(4-{[6-chloro-4-(1H-pyrrolo[2,3-b]pyridin-3-yl)pyridin-2-yl]amino}cyclohexyl)carbamoyl]glycinate]
< 10 | CC(C)NC(=O)NC1CCC(Nc2cc(-c3c[nH]c4ncccc34)cc(Cl)n2)CC1 (stereo not shown) [Example 287, 1-(4-{[6-chloro-4-(1H-pyrrolo[2,3-b]pyridin-3-yl)pyridin-2-yl]amino}cyclohexyl)-3-propan-2-ylurea]
< 10 | CC(C)(C)NC(=O)NC1CCC(Nc2cc(-c3c[nH]c4ncccc34)cc(Cl)n2)CC1 (stereo not shown) [Example 288, 1-tert-butyl-3-(4-{[6-chloro-4-(1H-pyrrolo[2,3-b]pyridin-3-yl)pyridin-2-yl]amino}cyclohexyl)urea]
< 10 | COCC(=O)NC1CCC(Nc2cc(-c3c[nH]c4ncccc34)cc(Cl)n2)CC1 (stereo not shown) [Example 289, N-(4-{[6-chloro-4-(1H-pyrrolo[2,3-b]pyridin-3-yl)pyridin-2-yl]amino}cyclohexyl)-2-methoxyacetamide]
< 10 | Clc1cc(-c2c[nH]c3ncccc23)cc(NC2CCCC(NCc3nccs3)C2)n1 (stereo not shown) [Example 290, N-[6-chloro-4-(1H-pyrrolo[2,3-b]pyridin-3-yl)pyridin-2-yl]-N′-(1,3-thiazol-2-ylmethyl)cyclohexane-1,3-diamine]
< 10 | Clc1cc(-c2c[nH]c3ncccc23)cc(NC2CCCC(NCc3cccc(CN4CCCCC4)c3)C2)n1 (stereo not shown) [Example 291, N-[6-chloro-4-(1H-pyrrolo[2,3-b]pyridin-3-yl)pyridin-2-yl]-N′-[3-(piperidin-1-ylmethyl)benzyl]cyclohexane-1,3-diamine]
< 10 | CCOCC(=O)NC1CCCC(Nc2cc(-c3c[nH]c4ncccc34)cc(Cl)n2)C1 (stereo not shown) [Example 292, N-(3-{[6-chloro-4-(1H-pyrrolo[2,3-b]pyridin-3-yl)pyridin-2-yl]amino}cyclohexyl)-2-ethoxyacetamide]
< 10 | O=C(COc1ccccc1)NC1CCCC(Nc2cc(-c3c[nH]c4ncccc34)cc(Cl)n2)C1 (stereo not shown) [Example 293, N-(3-{[6-chloro-4-(1H-pyrrolo[2,3-b]pyridin-3-yl)pyridin-2-yl]amino}cyclohexyl)-2-phenoxyacetamide]
< 10 | O=C(NC1CCCC(Nc2cc(-c3c[nH]c4ncccc34)cc(Cl)n2)C1)c1cnccn1 (stereo not shown) [Example 294, N-(3-{[6-chloro-4-(1H-pyrrolo[2,3-b]pyridin-3-yl)pyridin-2-yl]amino}cyclohexyl)pyrazine-2-carboxamide]
< 10 | O=C(NC1CCCC(Nc2cc(-c3c[nH]c4ncccc34)cc(Cl)n2)C1)C1CCN1 (stereo not shown) [Example 295, N-(3-{[6-chloro-4-(1H-pyrrolo[2,3-b]pyridin-3-yl)pyridin-2-yl]amino}cyclohexyl)azetidine-2-carboxamide]
< 10 | CC(C)(C)OC(=O)N1CCC1C(=O)NC1CCCC(Nc2cc(-c3c[nH]c4ncccc34)cc(Cl)n2)C1 (stereo not shown) [Example 296, tert-butyl 2-[(3-{[6-chloro-4-(1H-pyrrolo[2,3-b]pyridin-3-yl)pyridin-2-yl]amino}cyclohexyl)carbamoyl]azetidine-1-carboxylate]
< 10 | C=CCNC(=O)NC1CCC(Nc2cc(-c3c[nH]c4ncccc34)cc(Cl)n2)CC1 (stereo not shown) [Example 297, 1-(4-{[6-chloro-4-(1H-pyrrolo[2,3-b]pyridin-3-yl)pyridin-2-yl]amino}cyclohexyl)-3-prop-2-en-1-ylurea]
< 10 | Cn1cnc(S(=O)(=O)NCC(C)(C)CNc2cc(-c3c[nH]c4ncccc34)cc(Cl)n2)c1 [Example 298, N-(3-{[6-chloro-4-(1H-pyrrolo[2,3-b]pyridin-3-yl)pyridin-2-yl]amino}-2,2-dimethylpropyl)-1-methyl-1H-imidazole-4-sulfonamide]
< 10 | O=S(=O)(NC1CCCC(Nc2cc(-c3c[nH]c4ncccc34)cc(Cl)n2)C1)c1ccco1 (stereo not shown) [Example 299, N-(3-{[6-chloro-4-(1H-pyrrolo[2,3-b]pyridin-3-yl)pyridin-2-yl]amino}cyclohexyl)furan-2-sulfonamide]
< 10 | O=S(=O)(NC1CCCC(Nc2cc(-c3c[nH]c4ncccc34)cc(Cl)n2)C1)c1cccnc1 (stereo not shown) [Example 300, N-(3-{[6-chloro-4-(1H-pyrrolo[2,3-b]pyridin-3-yl)pyridin-2-yl]amino}cyclohexyl)pyridine-3-sulfonamide]
